From ChEMBL document CHEMBL5104103 (J Med Chem, 2022)

What was measured:
[1] = target: T1, Tyrosine-protein kinase TXK (Homo sapiens) (UniProt P42681); assay: Displacement of competitive tracer from RLK (unknown origin) assessed as target occupancy at […] preincubated for 15 mins measured for 24 hrs relative to control; settings: dose 1.5 µM
T1 sequence (whole entry): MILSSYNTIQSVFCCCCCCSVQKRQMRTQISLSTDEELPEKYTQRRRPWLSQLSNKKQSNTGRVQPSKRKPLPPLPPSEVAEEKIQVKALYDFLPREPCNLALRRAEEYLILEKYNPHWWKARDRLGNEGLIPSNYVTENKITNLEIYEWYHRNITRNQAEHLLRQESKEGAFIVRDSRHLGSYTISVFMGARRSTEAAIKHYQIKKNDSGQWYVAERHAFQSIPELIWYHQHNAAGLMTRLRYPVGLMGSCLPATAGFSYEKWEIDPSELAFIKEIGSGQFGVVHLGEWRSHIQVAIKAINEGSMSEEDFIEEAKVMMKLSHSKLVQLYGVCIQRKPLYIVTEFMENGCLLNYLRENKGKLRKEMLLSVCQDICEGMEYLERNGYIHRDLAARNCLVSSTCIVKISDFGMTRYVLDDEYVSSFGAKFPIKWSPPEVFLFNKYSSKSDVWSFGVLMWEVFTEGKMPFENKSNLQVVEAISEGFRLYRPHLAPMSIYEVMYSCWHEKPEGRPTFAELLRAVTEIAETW

[2] = target: T2, Tyrosine-protein kinase Tec (Homo sapiens) (UniProt P42680); assay: Displacement of competitive tracer from TEC (unknown origin) assessed as target occupancy at […] preincubated for 15 mins measured for 6 hrs relative to control; settings: dose 1.5 µM
T2 sequence (whole entry): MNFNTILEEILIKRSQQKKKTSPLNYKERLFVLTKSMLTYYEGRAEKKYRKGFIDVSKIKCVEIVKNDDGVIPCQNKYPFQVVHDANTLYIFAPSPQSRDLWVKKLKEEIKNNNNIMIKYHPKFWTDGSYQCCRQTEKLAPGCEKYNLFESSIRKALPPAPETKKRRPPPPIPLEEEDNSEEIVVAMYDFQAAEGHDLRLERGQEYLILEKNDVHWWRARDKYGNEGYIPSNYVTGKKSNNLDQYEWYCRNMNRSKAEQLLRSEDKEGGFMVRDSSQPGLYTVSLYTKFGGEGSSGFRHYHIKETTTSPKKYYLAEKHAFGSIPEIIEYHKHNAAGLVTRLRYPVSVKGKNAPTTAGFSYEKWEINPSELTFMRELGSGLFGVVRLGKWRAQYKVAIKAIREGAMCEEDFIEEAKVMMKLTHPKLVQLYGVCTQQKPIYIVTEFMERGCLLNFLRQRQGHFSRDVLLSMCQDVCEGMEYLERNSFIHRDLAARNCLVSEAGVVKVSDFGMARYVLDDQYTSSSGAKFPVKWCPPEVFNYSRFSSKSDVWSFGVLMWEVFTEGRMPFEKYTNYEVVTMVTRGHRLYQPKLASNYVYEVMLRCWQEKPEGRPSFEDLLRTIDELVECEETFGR

Activity [1]: 85%
Activity [2]: 80%
SMILES: CC(C)(C)/C=C(\C#N)C(=O)N1CCC[C@@H](n2nc(-c3ccc(Oc4ccccc4)cc3F)c3c(N)ncnc32)C1 [ATUZABRUTINIB]
